Experimental data: US20020045638A1, “Method of treating estrogen receptor positive carcinoma” (priority 2000, published 2002)

What was measured:
[1] = test system: BG-1 human ovarian cancer cells; experiment: Inhibition of growth of BG-1 ovarian cancer cells (MTT), with MacSynergy II synergy analysis; type: cell-based; conditions: for Antagonsim / Synergy: BG-1, antiestrogen in combination with CCI-779, MacSynergy II, Bliss independence model; for Percent Inhibition: CCI-779 0 nM
Procedure: In these test procedures, rapamycin 42-ester with 3-hydroxy-2-(hydroxymethyl)-2-methylpropionic acid was used as a representative rapamycin, and 2-(4-hydroxy-phenyl)-3-methyl-1-[4-(2-piperdin-1-yl-ethoxy)-benzyl-1 H-indol-5-ol, raloxifene, and 4-hydroxytamoxifen were used as representative antiestrogens.
One day before the experiment, cells were plated in 96-well plates at a cell density of 2,500 cells/well in IMEM medium supplemented with 10% fetal bovine serum. The next day, cells were treated with various concentrations of antiestrogen and rapamycin 42-ester with 3-hydroxy-2-(hydroxymethyl)-2-methylpropionic acid (referred to as CCI-779 in the tables below). Five or six-days later, cell growth was monitored.

[2] = test system: MCF-7 human breast cancer cells; experiment: Inhibition of growth of MCF-7 breast cancer cells (MTT), with MacSynergy II synergy analysis; conditions: for Antagonsim / Synergy: MCF-7, antiestrogen in combination with CCI-779, MacSynergy II, Bliss independence model; for synergy of growth inhibition (in words): MCF-7 cells, in combination with CCI-779;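 as to all read-outs here: cells treated five or six days with single agents or combinations, growth read by MTT, synergy surface equals observed % inhibition minus Bliss additive prediction, values under 0% signal antagonism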
Procedure: MCF-7 human breast cancer cells were maintained at 37° C. in a humidified atmosphere of 5% CO2 and 95% air in IMEM medium supplemented with 10% fetal bovine serum. […] One day before the experiment, cells were plated in 96-well plates at a cell density of 2,500 cells/well in IMEM medium supplemented with 10% fetal bovine serum. The next day, cells were treated with various concentrations of antiestrogen and rapamycin 42-ester with 3-hydroxy-2-(hydroxymethyl)-2-methylpropionic acid (referred to as CCI-779 in the tables below). Five or six-days later, cell growth was monitored. MTT solution (20 ul) (0.5 mg/ml) was added to each well and cells were incubated for an additional 4 h. The solution was then removed and 150 ul of DMSO added. The intensity of dark blue color corresponding to number of cells was read at 540 nm with an automated plate reader.
Briefly, theoretical additive interactions were calculated from the dose-response curves of each individual drug based on Bliss independence model. The calculated additive surface was then subtracted from the experimental surface to obtain a synergy surface representing % inhibition above the calculated additive value-synergy index. […] Likewise, any peak below the 0% plane is indicative of antagonism.

O=C(c1ccc(OCCN2CCCCC2)cc1)c1c(-c2ccc(O)cc2)sc2cc(O)ccc12 [RAL, raloxifene, reference compound]
Antagonsim [1]: −1.8 μM^2%
Synergy [1]: 40.3 μM^2%
Percent Inhibition ([1]; Table I, Raloxifene 0.25 nM): 0.74%
Percent Inhibition ([1]; Table I, Raloxifene 0.5 nM): −3.32%
Percent Inhibition ([1]; Table I, Raloxifene 1 nM): 7.79%
Percent Inhibition ([1]; Table I, Raloxifene 2 nM): 9.85%
Percent Inhibition ([1]; Table I, Raloxifene 3 nM): 11.5%
Percent Inhibition ([1]; Table I, Raloxifene 4 nM): 14.49%
Percent Inhibition ([1]; Table I, Raloxifene 5 nM): 14.04%
Antagonsim [2]: 0.0 μM^2%
Synergy [2]: 113.0 μM^2%
synergy of growth inhibition (in words) [2]: synergistic inhibition
Percent Inhibition ([2]; Table C, CCI-779 0 nM, Raloxifene 0.25 nM): −1.4%
Percent Inhibition ([2]; Table C, CCI-779 0 nM, Raloxifene 0.5 nM): −5.17%
Percent Inhibition ([2]; Table C, CCI-779 0 nM, Raloxifene 1 nM): 17.3%
Percent Inhibition ([2]; Table C, CCI-779 0 nM, Raloxifene 2 nM): 36.78%
Percent Inhibition ([2]; Table C, CCI-779 0 nM, Raloxifene 3 nM): 42.4%
Percent Inhibition ([2]; Table C, CCI-779 0 nM, Raloxifene 4 nM): 50.49%
Percent Inhibition ([2]; Table C, CCI-779 0 nM, Raloxifene 5 nM): 50.5%

CCC(=C(c1ccc(O)cc1)c1ccc(OCCN(C)C)cc1)c1ccccc1 [TAM, 4-hydroxytamoxifen, reference compound]
Antagonsim [1]: 0.0 μM^2%
Synergy [1]: 0.3 μM^2%
Percent Inhibition ([1]; Table H, 4-Hydroxytamoxifen 5 nM): 23.99%
Percent Inhibition ([1]; Table H, 4-Hydroxytamoxifen 10 nM): 21.39%
Percent Inhibition ([1]; Table H, 4-Hydroxytamoxifen 20 nM): 35.05%
Percent Inhibition ([1]; Table H, 4-Hydroxytamoxifen 30 nM): 36.43%
Percent Inhibition ([1]; Table H, 4-Hydroxytamoxifen 40 nM): 39.51%
Percent Inhibition ([1]; Table H, 4-Hydroxytamoxifen 50 nM): 47.73%
Percent Inhibition ([1]; Table H, 4-Hydroxytamoxifen 100 nM): 50%
Antagonsim [2]: 0.0 μM^2%
Synergy [2]: 77.00 μM^2%
synergy of growth inhibition (in words) [2]: synergistic inhibition
Percent Inhibition ([2]; Table B, CCI-779 0 nM, 4-Hydroxytamoxifen 5 nM): 20.44%
Percent Inhibition ([2]; Table B, CCI-779 0 nM, 4-Hydroxytamoxifen 10 nM): 22.75%
Percent Inhibition ([2]; Table B, CCI-779 0 nM, 4-Hydroxytamoxifen 20 nM): 39.85%
Percent Inhibition ([2]; Table B, CCI-779 0 nM, 4-Hydroxytamoxifen 30 nM): 41.46%
Percent Inhibition ([2]; Table B, CCI-779 0 nM, 4-Hydroxytamoxifen 40 nM): 39.09%
Percent Inhibition ([2]; Table B, CCI-779 0 nM, 4-Hydroxytamoxifen 50 nM): 47.19%
Percent Inhibition ([2]; Table B, CCI-779 0 nM, 4-Hydroxytamoxifen 100 nM): 36.99%
Percent Inhibition ([2]; Table F, 4-Hydroxytamoxifen 0 nM + 4-Hydroxytamoxifen 5 nM): 25.02%
Percent Inhibition ([2]; Table F, 4-Hydroxytamoxifen 0 nM + 4-Hydroxytamoxifen 10 nM): 37.37%
Percent Inhibition ([2]; Table F, 4-Hydroxytamoxifen 0 nM + 4-Hydroxytamoxifen 20 nM): 44.9%
Percent Inhibition ([2]; Table F, 4-Hydroxytamoxifen 0 nM + 4-Hydroxytamoxifen 30 nM): 42.42%
Percent Inhibition ([2]; Table F, 4-Hydroxytamoxifen 0 nM + 4-Hydroxytamoxifen 40 nM): 46.46%
Percent Inhibition ([2]; Table F, 4-Hydroxytamoxifen 0 nM + 4-Hydroxytamoxifen 50 nM): 45.78%
Percent Inhibition ([2]; Table F, 4-Hydroxytamoxifen 0 nM + 4-Hydroxytamoxifen 100 nM): 49.99%
Percent Inhibition ([2]; Table F, 4-Hydroxytamoxifen 5 nM + 4-Hydroxytamoxifen 0 nM): 12.73%
Percent Inhibition ([2]; Table F, 4-Hydroxytamoxifen 5 nM + 4-Hydroxytamoxifen 5 nM): 37.12%
Percent Inhibition ([2]; Table F, 4-Hydroxytamoxifen 5 nM + 4-Hydroxytamoxifen 10 nM): 49.04%
Percent Inhibition ([2]; Table F, 4-Hydroxytamoxifen 5 nM + 4-Hydroxytamoxifen 20 nM): 50.12%
Percent Inhibition ([2]; Table F, 4-Hydroxytamoxifen 5 nM + 4-Hydroxytamoxifen 30 nM): 50.39%
Percent Inhibition ([2]; Table F, 4-Hydroxytamoxifen 5 nM + 4-Hydroxytamoxifen 40 nM): 54.19%
Percent Inhibition ([2]; Table F, 4-Hydroxytamoxifen 5 nM + 4-Hydroxytamoxifen 50 nM): 53.75%
Percent Inhibition ([2]; Table F, 4-Hydroxytamoxifen 5 nM + 4-Hydroxytamoxifen 100 nM): 59.23%
Percent Inhibition ([2]; Table F, 4-Hydroxytamoxifen 10 nM + 4-Hydroxytamoxifen 0 nM): 27.87%
Percent Inhibition ([2]; Table F, 4-Hydroxytamoxifen 10 nM + 4-Hydroxytamoxifen 5 nM): 47.71%
Percent Inhibition ([2]; Table F, 4-Hydroxytamoxifen 10 nM + 4-Hydroxytamoxifen 10 nM): 47.11%
Percent Inhibition ([2]; Table F, 4-Hydroxytamoxifen 10 nM + 4-Hydroxytamoxifen 20 nM): 45.86%
Percent Inhibition ([2]; Table F, 4-Hydroxytamoxifen 10 nM + 4-Hydroxytamoxifen 30 nM): 47.6%
Percent Inhibition ([2]; Table F, 4-Hydroxytamoxifen 10 nM + 4-Hydroxytamoxifen 40 nM): 53.22%
Percent Inhibition ([2]; Table F, 4-Hydroxytamoxifen 10 nM + 4-Hydroxytamoxifen 50 nM): 56.54%
Percent Inhibition ([2]; Table F, 4-Hydroxytamoxifen 10 nM + 4-Hydroxytamoxifen 100 nM): 58.11%
Percent Inhibition ([2]; Table F, 4-Hydroxytamoxifen 50 nM + 4-Hydroxytamoxifen 0 nM): 39.46%
Percent Inhibition ([2]; Table F, 4-Hydroxytamoxifen 50 nM + 4-Hydroxytamoxifen 5 nM): 48.51%
Percent Inhibition ([2]; Table F, 4-Hydroxytamoxifen 50 nM + 4-Hydroxytamoxifen 10 nM): 51.71%
Percent Inhibition ([2]; Table F, 4-Hydroxytamoxifen 50 nM + 4-Hydroxytamoxifen 20 nM): 46.36%
Percent Inhibition ([2]; Table F, 4-Hydroxytamoxifen 50 nM + 4-Hydroxytamoxifen 30 nM): 42.54%
Percent Inhibition ([2]; Table F, 4-Hydroxytamoxifen 50 nM + 4-Hydroxytamoxifen 40 nM): 48.3%
Percent Inhibition ([2]; Table F, 4-Hydroxytamoxifen 50 nM + 4-Hydroxytamoxifen 50 nM): 50.98%
Percent Inhibition ([2]; Table F, 4-Hydroxytamoxifen 50 nM + 4-Hydroxytamoxifen 100 nM): 58.57%
Percent Inhibition ([2]; Table F, 4-Hydroxytamoxifen 100 nM + 4-Hydroxytamoxifen 0 nM): 46.41%
Percent Inhibition ([2]; Table F, 4-Hydroxytamoxifen 100 nM + 4-Hydroxytamoxifen 5 nM): 52.37%
Percent Inhibition ([2]; Table F, 4-Hydroxytamoxifen 100 nM + 4-Hydroxytamoxifen 10 nM): 50.34%
Percent Inhibition ([2]; Table F, 4-Hydroxytamoxifen 100 nM + 4-Hydroxytamoxifen 20 nM): 47.64%
Percent Inhibition ([2]; Table F, 4-Hydroxytamoxifen 100 nM + 4-Hydroxytamoxifen 30 nM): 48.22%
Percent Inhibition ([2]; Table F, 4-Hydroxytamoxifen 100 nM + 4-Hydroxytamoxifen 40 nM): 51.79%
Percent Inhibition ([2]; Table F, 4-Hydroxytamoxifen 100 nM + 4-Hydroxytamoxifen 50 nM): 55.29%
Percent Inhibition ([2]; Table F, 4-Hydroxytamoxifen 100 nM + 4-Hydroxytamoxifen 100 nM): 61.34%
Percent Inhibition ([2]; Table F, 4-Hydroxytamoxifen 200 nM + 4-Hydroxytamoxifen 0 nM): 45.75%
Percent Inhibition ([2]; Table F, 4-Hydroxytamoxifen 200 nM + 4-Hydroxytamoxifen 5 nM): 54.54%
Percent Inhibition ([2]; Table F, 4-Hydroxytamoxifen 200 nM + 4-Hydroxytamoxifen 10 nM): 51.06%
Percent Inhibition ([2]; Table F, 4-Hydroxytamoxifen 200 nM + 4-Hydroxytamoxifen 20 nM): 52%
Percent Inhibition ([2]; Table F, 4-Hydroxytamoxifen 200 nM + 4-Hydroxytamoxifen 30 nM): 49.75%
Percent Inhibition ([2]; Table F, 4-Hydroxytamoxifen 200 nM + 4-Hydroxytamoxifen 40 nM): 59.13%
Percent Inhibition ([2]; Table F, 4-Hydroxytamoxifen 200 nM + 4-Hydroxytamoxifen 50 nM): 59.05%
Percent Inhibition ([2]; Table F, 4-Hydroxytamoxifen 200 nM + 4-Hydroxytamoxifen 100 nM): 61.13%
Percent Inhibition ([2]; Table F, 4-Hydroxytamoxifen 400 nM + 4-Hydroxytamoxifen 0 nM): 48.85%
Percent Inhibition ([2]; Table F, 4-Hydroxytamoxifen 400 nM + 4-Hydroxytamoxifen 5 nM): 52.28%
Percent Inhibition ([2]; Table F, 4-Hydroxytamoxifen 400 nM + 4-Hydroxytamoxifen 10 nM): 58.29%
Percent Inhibition ([2]; Table F, 4-Hydroxytamoxifen 400 nM + 4-Hydroxytamoxifen 20 nM): 56.61%
Percent Inhibition ([2]; Table F, 4-Hydroxytamoxifen 400 nM + 4-Hydroxytamoxifen 30 nM): 57.28%
Percent Inhibition ([2]; Table F, 4-Hydroxytamoxifen 400 nM + 4-Hydroxytamoxifen 40 nM): 59.68%
Percent Inhibition ([2]; Table F, 4-Hydroxytamoxifen 400 nM + 4-Hydroxytamoxifen 50 nM): 67.28%
Percent Inhibition ([2]; Table F, 4-Hydroxytamoxifen 400 nM + 4-Hydroxytamoxifen 100 nM): 64.92%
